This note sets out measurements from publication PMC3551932, “STK295900, a Dual Inhibitor of Topoisomerase 1 and 2, Induces G2 Arrest in the Absence of DNA Damage” (PLoS ONE, 2013).

The subject of assay [1] is HeLa cells. In words: Cell growth inhibition assay, HeLa. Format: cell-based, human. Conditions: Homo sapiens, 96 h, growth up to 4 days. The source says: (§1) Human epitheloid cervical carcinoma HeLa cells, human breast adenocarcinoma MCF7 and MDA-MB-231cells, human hepatocellular carcinoma HepG2 cells, human colon adenocarcinoma HT-29 cells, and human colorectal carcinoma HCT-116 cells were purchased from ATCC® and maintained in DMEM medium. Human prostate carcinoma PC-3 cells (purchased from ATCC®), human gastric carcinoma SNU-484 and SNU-601(obtained from Korean Cell Line Bank (KCLB)), human leukemia K-562 and HL-60 cells (purchased from ATCC®), immortalized human prostate epithelial 267B1cells, and immortalized human embryonic lung fibroblast MRC5CV1 cells were maintained in RPMI 1640 medium whereas immortalized retinal pigment epithelial hTERT RPE-1 cells (purchased from ATCC®) were maintained in DMEM/F12 medium. All cell lines were cultured in media supplemented with 10% fetal bovine serum, 100 U/ml penicillin, and […] streptomycin at 37°C in a 5% CO2 incubator.
(§2) Cells were seeded at the appropriate amount (1–2×10^3 cells) in triplicate in 96-well plates for 24 h and then treated with various concentrations of STK295900. Cell growth was determined by using EZ-CyTox cell viability assay kit (Daeil Lab. Service, Seoul, Korea). Ten microliters of WST solution were added to the treated cells at 24, 48, 72, and 96 h. Cells were further incubated at 37°C for 2 h and the absorbance was measured at 450 nm.

Assay [2] has as its system MCF7 cells. In words: Cell growth inhibition assay, MCF7. The note with it: Homo sapiens, MCF7, 96 h, growth up to 4 days. It is filed as cell-based, human.
Excerpt: as §1, §2

Assay [3] concerns HepG2 cells. In words: Cell growth inhibition assay, HepG2. Format: cell-based, human. The note with it: Homo sapiens, HepG2, 96 h, growth up to 4 days.
Excerpt: as §1, §2

For assay [4], the system named is HT-29 cells. In words: Cell growth inhibition assay, HT-29. Format: cell-based, human. The note with it: Homo sapiens, HT-29, 96 h, growth up to 4 days.
Excerpt: as §1, §2

The subject of assay [5] is HCT-116 cells. In words: Cell growth inhibition assay, HCT-116. The note with it: Homo sapiens, 96 h, Table 1, growth up to 4 days. It is filed as cell-based.
Excerpt: as §1, §2

Assay [6] relates to HL-60 cells. In words: Cell growth inhibition assay, HL-60. Format: cell-based. Conditions: Homo sapiens, 96 h; Table 1; HL-60, leukemia; growth up to 4 days.
Excerpt: as §1, §2

Assay [7] concerns SNU-484 cells. In words: Cell growth inhibition assay, SNU-484. It is filed as cell-based. The note with it: Homo sapiens, 96 h; Table 1; SNU-484, gastric carcinoma; growth up to 4 days.
Excerpt: as §1, §2

Assay [8] deals with hTERT RPE-1 cells. In words: Cell growth inhibition assay, hTERT RPE-1. Format: cell-based, human. The note with it: Homo sapiens, hTERT-RPE1, 96 h; Table 2 comparison; hTERT RPE-1, non-cancer; growth up to 4 days.
Excerpt: as §1, §2

In assay [9] the test system is 267B1 cells. In words: Cell growth inhibition assay, 267B1. Conditions: Homo sapiens, 96 h; Table 2 comparison; 267B1, non-cancer; growth up to 4 days. Format: cell-based, human.
Excerpt: as §1, §2

The test system of assay [10] is MRC5CV1 cells. In words: Cell growth inhibition assay, MRC5CV1. Conditions: Homo sapiens, 96 h; Table 2 comparison; MRC5CV1, non-cancer; growth up to 4 days. It is filed as cell-based, human.
Excerpt: as §1, §2

Assay [11] relates to cancer (HeLa, MCF7, HepG2, and HT-29) and non-cancerous cell lines (hTERT RPE-1, 267B1, and MRC5CV1). In words: Cell growth inhibition assay, cancer and non-cancerous cell lines compared. Format: cell-based, human. The note with it: cancer (HeLa, MCF7, HepG2, HT-29) vs non-cancer (hTERT RPE-1, 267B1, MRC5CV1).
Excerpt: as §1, §2

The test system of assay [12] is HeLa cells. In words: Mitotic index (Hoechst 33342 staining, mitotic cells counted). Format: cell-based, human. The note with it: various concentrations, 24 h. The source says:
Given its strong growth inhibitory effect on various cancer cell types, STK295900 was examined to determine its effect on cell cycle distribution using flow cytometry analysis. […] We then analyzed whether the increasing G2/M population in Fig. 2A is indeed G2 or M phase by determining the mitotic index and investigating the cell cycle regulatory proteins. To determine mitotic index, the treated cells were stained with Hoechst 33342 and then mitotic cells were counted. […] (A) Flow cytometric analysis for cell cycle distribution. HeLa cells were treated with the indicated concentrations of STK295900 for 24 h. Treated cells were then stained with propidium iodide (PI) and processed for cell cycle analysis. The bar graph represents the mean percentage of each cell cycle phase ± SD from three independent experiments. * = p<0.05 versus the respective G1, S, or G2/M phase of DMSO-treated cells. […] HeLa cells were treated with the indicated concentrations of STK295900 for 24 h. Cells were then stained with Hoechst 33342 and mitotic cells were counted. […] (C) Cell cycle related proteins expression.

The target of assay [13] is T1, calf thymus topoisomerase 1 (Bos taurus, UniProt F1MN93).
T1 construct: purified calf thymus topoisomerase 1; purchased Takara Bio, Shiga, Japan; host or cells: calf thymus (tissue-purified)
T1 sequence (F1MN93 1-767): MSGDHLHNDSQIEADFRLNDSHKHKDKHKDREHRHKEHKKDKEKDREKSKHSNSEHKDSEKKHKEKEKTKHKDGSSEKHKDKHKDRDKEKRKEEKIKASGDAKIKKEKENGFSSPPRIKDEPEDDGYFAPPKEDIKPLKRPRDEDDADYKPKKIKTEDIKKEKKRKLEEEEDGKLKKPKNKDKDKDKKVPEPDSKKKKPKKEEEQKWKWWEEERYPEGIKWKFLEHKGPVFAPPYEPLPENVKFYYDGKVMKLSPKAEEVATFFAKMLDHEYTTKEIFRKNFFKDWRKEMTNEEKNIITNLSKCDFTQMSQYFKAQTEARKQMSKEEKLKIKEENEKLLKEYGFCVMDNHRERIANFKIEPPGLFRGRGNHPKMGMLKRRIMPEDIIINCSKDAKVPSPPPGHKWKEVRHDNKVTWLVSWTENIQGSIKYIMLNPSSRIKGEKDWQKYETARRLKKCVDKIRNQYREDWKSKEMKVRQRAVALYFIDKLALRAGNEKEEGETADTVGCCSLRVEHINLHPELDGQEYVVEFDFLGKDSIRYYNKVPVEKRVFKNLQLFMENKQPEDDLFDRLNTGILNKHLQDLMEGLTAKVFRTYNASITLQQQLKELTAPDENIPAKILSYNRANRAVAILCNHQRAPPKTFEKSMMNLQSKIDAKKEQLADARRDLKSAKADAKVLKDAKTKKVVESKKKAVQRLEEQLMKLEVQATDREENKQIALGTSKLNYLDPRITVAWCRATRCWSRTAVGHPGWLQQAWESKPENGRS
In words: Supercoiled DNA relaxation assay for topoisomerase 1. Format: biochemical.

As usually defined, the IC50 is the point on the concentration scale where inhibition reaches its midpoint. Read a low IC50 as greater potency in that assay. Take `Nc1ccc(-c2nc3ccc(-c4ccc5nc(-c6ccc(N)cc6)[nH]c5c4)cc3[nH]2)cc1` [STK295900, 4,4′-(3H,3′H-5,5′-bibenzimidazole-2,2′-diyl)dianiline]: the IC50 in assay [1] (Table 1, cervical carcinoma) was 520 nM; in assay [1] (Table 2 comparison), 640 nM; in [2] (Table 1, MCF7, breast adenocarcinoma), 60 nM; in [2] (Table 2 comparison, MCF7), 40 nM; in assay [3] (Table 1, HepG2, hepatocellular carcinoma), 170 nM; in assay [3] (Table 2 comparison, HepG2), 140 nM. Also, the half-maximal inhibitory concentration (IC50) in assay [4] (Table 1, HT-29, colon adenocarcinoma) turned out to be 270 nM; in assay [4] (Table 2 comparison, HT-29) it was 210 nM; in [5] it was 2830 nM; in [6], 500 nM; in assay [7], 1210 nM; in assay [8], 3430 nM. The figures for the half-maximal inhibitory concentration (IC50) in [9] and in assay [10] were 1610 nM and 950 nM, respectively. Besides, in [11], the “selectivity of toxicity, cancer versus non-cancer cells” value was “selective toxicity against cancer cells”. Besides, the mitotic index entry in [12] is on record as “no significant change in mitotic index”. Besides, the “supercoiled DNA at high concentrations (Top 1 catalytic activity)” value in assay [13] (high concentrations (50 and 100 µM)) was “supercoiled DNA could be observed”. Moreover, the “Top 1-mediated DNA relaxation” value in [13] (pBR322, 37°C, 30 min, various concentrations) is “inhibited DNA relaxation activity of Top 1 in a dose-dependent manner”.
